From ChEMBL document CHEMBL3886420, “Substituted pyrimidine compounds and their use as SYK inhibitors” (2015)

Target: Tyrosine-protein kinase SYK (Homo sapiens, UniProt P43405)
Experiment: Inhibition Assay: Compounds of the invention were initially diluted to 10 mM in 100% DMSO (CALBIOCHEM) for storage and made into kinase buffer solution to create a compound concentration ranging from 1 uM and 10 uM. Serial dilutions of compounds of the invention were dispensed into a 96-well plate (GREINER BIOSCIENCES) at 6 uL each. Purified full-length human SYK (CARNA BIOSCIENCES) were diluted …

With `CCOC(=O)n1cc(C(C)=O)c2cc(Nc3nccc(-n4cc(CN5C[C@H](O)CO5)c(C)n4)n3)ccc21` the IC50 was 0.0456 µM.
